Assay results reported in patent US20030032807A1, “Method for the production of 1-amino -3-aryl -uracils” (priority 2000, published 2003).

Assay: logP determination by HPLC on reversed-phase column (C 18), EEC Directive 79/831 Annex V.A8
Format: physicochemical
Details: reversed-phase HPLC column (C 18); at pH=2.3; acid range eluents 0.1% aqueous phosphoric acid/acetonitrile; 43° C.
Protocol: The determination of the logP value given in Example 1 was carried out according to EEC Directive 79/831 Annex V.A8 by HPLC (High Performance Liquid Chromatography) using a reversed-phase column (C 18). Temperature: 43° C. (a) Eluents for determination in the acid range: 0.1% aqueous phosphoric acid, acetonitrile; linear gradient from 10% acetonitrile to 90% acetonitrile—corresponding measurements are marked in Table 1 by ^a). (b) Eluents for determination in the neutral range: […] aqueous phosphate buffer solution, acetonitrile; linear gradient of 10% acetonitrile to 90% acetonitrile—corresponding measurements are marked in Table 1 by ^b). Calibration was carried out using unbranched alkan-2-ones (having from 3 to 16 carbon atoms), whose logP values are known (determination of logP values using the retention times by linear interpolation between two consecutive alkanones).

Row | SMILES | chromatographic logP
1 | Nn1c(C(F)(F)F)cc(=O)n(-c2ccc(Br)cc2F)c1=O [Example 1, 1-amino-3-(4-bromo-2-fluorophenyl)-6-trifluoromethyl-2,4-(1H,3H)-pyrimidinedione] | 2.41
2 | CCS(=O)(=O)N(C(=O)c1ccccc1)c1cc(-n2c(=O)cc(C(F)(F)F)n(N)c2=O)c(F)cc1C#N [Example 8, N-benzoyl-N-[2-cyano-5-(3-amino-2,6-dioxo-4-trifluoromethyl-3,6-dihydro-1-(2H)-pyrimidinyl)-4-fluorophenyl]ethanesulphonamide] | 2.82
